In ChEMBL document CHEMBL1201862, “PubChem BioAssay data set” (2004):
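Values below derive from 48-hour exposures of cells grown in 96-well plates, with endpoints linearly interpolated between the two concentrations bracketing the appropriate inhibition level. GI50 = concentration required for 50% inhibition of growth.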 Calls of active or inactive are those of the source. No stated cut-off is given here; in the data, active = GI50 up to about 1.1 µM and inactive = higher. Where a SMILES comes first, the peptide text is derived from it. The star is where a group is joined. Boc = CC(C)(C)OC(=O)*

Legend:
Experiment in all cases: DTP human tumour cell line panel, 48 h
[1] = test system: NCI-H522
[2] = test system: UACC-257
[3] = test system: OVCAR-8
[4] = test system: SF-295
[5] = test system: SK-OV-3
[6] = test system: RXF 393
[7] = test system: SNB-19
[8] = test system: SN12C
[9] = test system: HCT-15
[10] = test system: OVCAR-5
[11] = test system: LOX IMVI
[12] = test system: MDA-MB-435
[13] = test system: Malme-3M
[14] = test system: CCRF-CEM
[15] = test system: U-251
[16] = test system: Hs-578T
[17] = test system: K562
[18] = test system: UO-31
[19] = test system: CAKI-1
[20] = test system: HCC 2998

| SMILES | GI50 [1] | GI50 [2] | GI50 [3] | GI50 [4] | GI50 [5] | GI50 [6] | GI50 [7] | GI50 [8] | GI50 [9] | GI50 [10] | GI50 [11] | GI50 [12] | GI50 [13] | GI50 [14] | GI50 [15] | GI50 [16] | GI50 [17] | GI50 [18] | GI50 [19] | GI50 [20] |
| --- | --- | --- | --- | --- | --- | --- | --- | --- | --- | --- | --- | --- | --- | --- | --- | --- | --- | --- | --- | --- |
| CCOC(=O)c1nc2ccccc2nc1Oc1cc(OC)cc(OC)c1 | 46.7 µM (inactive) | > 100 µM (inactive) | > 100 µM (inactive) | > 100 µM (inactive) | > 100 µM (inactive) | 53.5 µM (inactive) | > 100 µM (inactive) | > 100 µM (inactive) | > 100 µM | > 100 µM (inactive) | > 100 µM (inactive) | > 100 µM (inactive) | > 100 µM (inactive) | > 100 µM (inactive) | 78.3 µM (inactive) | 27.9 µM (inactive) | > 100 µM (inactive) | > 100 µM (inactive) |  |  |
| O=C(O)CSc1n[nH]c(=O)[nH]c1=O | > 100 µM (inactive) |  | > 100 µM (inactive) | > 100 µM (inactive) | > 100 µM (inactive) | > 100 µM (inactive) | > 100 µM (inactive) | > 100 µM (inactive) | > 100 µM | > 100 µM (inactive) | > 100 µM (inactive) | > 100 µM (inactive) | > 100 µM (inactive) | > 100 µM (inactive) | > 100 µM (inactive) | > 100 µM (inactive) | > 100 µM (inactive) | > 100 µM (inactive) | > 100 µM (inactive) |  |
| CC(=O)c1nc2ccccc2n1CC(=O)c1ccc(Cl)cc1 | 2.79 µM (inactive) | 5.68 µM (inactive) | 2.4 µM (inactive) | 13.4 µM (inactive) | 28.1 µM (inactive) | 17.6 µM (inactive) | 7.4 µM (inactive) | 5.69 µM (inactive) | 5.2 µM |  | 0.925 µM (active) | 2.09 µM (inactive) | 3.19 µM (inactive) | 4.09 µM (inactive) | 2.99 µM (inactive) | 17.2 µM (inactive) | 1.52 µM (inactive) | 9.25 µM (inactive) | 5.25 µM (inactive) |  |
| Cc1ccc(-c2nc(Cc3n[nH]c(-c4ccc(C)cc4)n3)n[nH]2)cc1 | 2.99 µM (inactive) | > 100 µM (inactive) | 10.3 µM (inactive) | > 100 µM (inactive) | > 100 µM (inactive) | 21.1 µM (inactive) | 44.2 µM (inactive) | > 100 µM (inactive) | > 100 µM | > 100 µM (inactive) | > 100 µM (inactive) | > 100 µM (inactive) |  | > 100 µM (inactive) | 3.71 µM (inactive) |  | > 100 µM (inactive) | > 100 µM (inactive) |  | > 100 µM (inactive) |
| CN1C(=O)C2C(=O)N(Cc3ccccc3)CC(=O)N2c2cccnc21 (centres undefined) | > 100 µM (inactive) | > 100 µM (inactive) | > 100 µM (inactive) | > 100 µM (inactive) | > 100 µM (inactive) | > 100 µM (inactive) | > 100 µM (inactive) |  | > 100 µM | > 100 µM (inactive) | > 100 µM (inactive) | > 100 µM (inactive) | 70.5 µM (inactive) | > 100 µM (inactive) | > 100 µM (inactive) | > 100 µM (inactive) | > 100 µM (inactive) | > 100 µM (inactive) | > 100 µM (inactive) |  |
| O=C1c2ccccc2C(=O)N1CCc1nc(-c2ccccc2)c[nH]1 | > 100 µM (inactive) | > 100 µM (inactive) | > 100 µM (inactive) | > 100 µM (inactive) | > 100 µM (inactive) |  | > 100 µM (inactive) | > 100 µM (inactive) | > 100 µM | > 100 µM (inactive) |  |  | 24.8 µM (inactive) | > 100 µM (inactive) | > 100 µM (inactive) | > 100 µM (inactive) | > 100 µM (inactive) | > 100 µM (inactive) | > 100 µM (inactive) | > 100 µM (inactive) |
| CN1CCc2c(sc3ncn(C)c(=N)c23)C1 | > 100 µM (inactive) | > 100 µM (inactive) | > 100 µM (inactive) | > 100 µM (inactive) | > 100 µM (inactive) | > 100 µM (inactive) | > 100 µM (inactive) | > 100 µM (inactive) | > 100 µM | > 100 µM (inactive) | > 100 µM (inactive) | > 100 µM (inactive) | > 100 µM (inactive) | > 100 µM (inactive) | > 100 µM (inactive) | > 100 µM (inactive) | > 100 µM (inactive) |  | > 100 µM (inactive) |  |
| COC(=O)C(Cc1c[nH]c2ccccc12)NC(=O)C(Cc1c[nH]c2ccccc12)NC(=O)C(Cc1c[nH]c2ccccc12)NC(=O)C(Cc1c[nH]c2ccccc12)NC(=O)C(Cc1c[nH]c2ccccc12)NC(=O)C(Cc1c[nH]c2ccccc12)NC(=O)C(Cc1c[nH]c2ccccc12)NC(=O)C(Cc1c[nH]c2ccccc12)NC(=O)OC(C)(C)C (centres undefined) (Boc-WWWWWWWW-OMe; configuration not given here) | 17.4 µM (inactive) | 43.5 µM (inactive) | > 100 µM (inactive) |  |  |  | 46.2 µM (inactive) | 72.8 µM (inactive) | > 100 µM | 37.8 µM (inactive) | 63.5 µM (inactive) | > 100 µM (inactive) | 53.2 µM (inactive) | 34.4 µM (inactive) | 74.6 µM (inactive) |  | 31.8 µM (inactive) | 53.7 µM (inactive) | > 100 µM (inactive) | > 100 µM (inactive) |
| COc1cc(OC)c2c(c1OC)OCC(Cc1ccc(O)cc1)C2=O (centres undefined) | > 25 µM (inactive) | > 25 µM (inactive) | > 25 µM (inactive) | > 25 µM (inactive) | > 25 µM (inactive) | 20.3 µM (inactive) | > 25 µM (inactive) | > 25 µM (inactive) | > 25 µM | > 25 µM (inactive) | > 25 µM (inactive) | > 25 µM (inactive) | > 25 µM (inactive) | > 25 µM (inactive) | > 25 µM (inactive) | > 25 µM (inactive) | > 25 µM (inactive) | > 25 µM (inactive) | > 25 µM (inactive) |  |
| OCC1OC(n2cnc3c(SCc4ccccc4)ncnc32)C(O)C1O (centres undefined) | 17.5 µM (inactive) | > 100 µM (inactive) | 1.04 µM (active) | > 74.1 µM (inactive) | > 89.3 µM (inactive) | 20.2 µM (inactive) | > 100 µM (inactive) | 7.5 µM (inactive) | 3.25 µM | > 96.2 µM (inactive) | 2.13 µM (inactive) | > 100 µM (inactive) | > 100 µM (inactive) | 0.169 µM (active) | > 100 µM (inactive) |  | 3.15 µM (inactive) | 23 µM (inactive) | 6.53 µM (inactive) | 8.24 µM (inactive) |
| O=C1CCc2cc3c(cc21)C(C(=O)O)CC3 (centres undefined) | > 100 µM (inactive) | > 100 µM (inactive) | > 100 µM (inactive) | > 100 µM (inactive) | > 100 µM (inactive) | 30.8 µM (inactive) | > 100 µM (inactive) | > 100 µM (inactive) | > 100 µM | > 100 µM (inactive) | > 100 µM (inactive) |  | > 100 µM (inactive) | > 100 µM (inactive) | > 100 µM (inactive) | > 100 µM (inactive) | > 100 µM (inactive) | > 100 µM (inactive) | > 100 µM (inactive) | > 100 µM (inactive) |
| c1ccc(C2(c3cc4ccccc4[nH]3)OCCO2)cc1 |  | 31.6 µM (inactive) | 76.2 µM (inactive) | 53.1 µM (inactive) | 85.1 µM (inactive) | > 100 µM (inactive) | > 100 µM (inactive) | 41.2 µM (inactive) | 41.6 µM | 30.8 µM (inactive) | 38 µM (inactive) | 31.4 µM (inactive) |  | 18.4 µM (inactive) | > 100 µM (inactive) |  | 22.2 µM (inactive) | 42.6 µM (inactive) | 86.1 µM (inactive) |  |
| COc1ccc(/C=C2\OC(=O)C(Cl)=C2c2ccc(OC)cc2)cc1 | 66.2 µM (inactive) | > 100 µM (inactive) | 85.7 µM (inactive) | > 100 µM (inactive) | > 100 µM (inactive) |  | > 100 µM (inactive) | > 100 µM (inactive) | > 100 µM |  | > 100 µM (inactive) | > 100 µM (inactive) | > 100 µM (inactive) | > 100 µM (inactive) | 89.3 µM (inactive) | > 100 µM (inactive) | > 100 µM (inactive) | > 100 µM (inactive) | > 100 µM (inactive) |  |
| NS(=O)(=O)c1ccc(NC(=O)c2cc([N+](=O)[O-])cc([N+](=O)[O-])c2)cc1 |  | 12.8 µM (inactive) | 47.3 µM (inactive) |  | 80.4 µM (inactive) | > 100 µM (inactive) | 45.9 µM (inactive) | 21.7 µM (inactive) | 44.3 µM |  | 22.8 µM (inactive) | 17.7 µM (inactive) | 24.8 µM (inactive) | 28.8 µM (inactive) | 37.8 µM (inactive) | 76.4 µM (inactive) | 43.7 µM (inactive) | 65.6 µM (inactive) | > 100 µM (inactive) |  |
| O=C(/N=c1/[nH]/c(=N/C(=O)c2ccccc2)ss1)c1ccccc1 | 5.78 µM (inactive) | 14.6 µM (inactive) | 27.3 µM (inactive) | 18 µM (inactive) | 34.7 µM (inactive) | 29.7 µM (inactive) | 33.5 µM (inactive) | 16.5 µM (inactive) | 21.4 µM | 31.7 µM (inactive) | 23.9 µM (inactive) |  | 9.89 µM (inactive) | 16 µM (inactive) | 7.55 µM (inactive) |  | 20.4 µM (inactive) | 18.5 µM (inactive) | 30.3 µM (inactive) | 18 µM (inactive) |
